According to PubChem BioAssay AID328 (DTP/NCI, 2004):
Toxic doses and inconclusive results are not listed. The calls were made as follows: active = survival T/C of 150% or more; inactive = T/C below 125% in these data.

System: BDF1 mice, P388 leukemia ip, median survival T/C
Test: NCI In Vivo Anticancer Drug Screen. Data for tumor model P388 Leukemia (intraperitoneal) in B6D2F1 (BDF1) mice
Conditions: endpoint: median survival time, higher = longer survival
In short: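 In tumour-bearing mice, survival after compound treatment is set against the vehicle group and given as a quotient.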

[1] = dose: 6.25 mg/kg/injection, schedule: Q04DX003 (ip), vehicle: saline
[2] = dose: 50.0 mg/kg/injection, schedule: Q01DX009 (ip), vehicle: saline with Tween-80
[3] = dose: 100.0 mg/kg/injection, schedule: Q01DX009 (ip), vehicle: saline with Tween-80
[4] = dose: 12.5 mg/kg/injection, schedule: Q01DX009 (ip), vehicle: saline

Measured: T/C

O=C(/C=C/c1ccncc1)c1ccccc1
inactive: dose: 100.0 mg/kg/injection, schedule: Q01DX001 (ip), vehicle: saline with Tween-80 122 % of control | dose: 200.0 mg/kg/injection, schedule: Q01DX001 (ip), vehicle: saline with Tween-80 113 % of control

CN1CCN=C1c1ccc(NC(=O)c2ccc(C(=O)Nc3ccc(C4=NCCN4C)cc3)cc2)cc1
active: dose: 4.0 mg/kg/injection, schedule: Q01DX009 (ip), vehicle: saline 213 % of control | dose: 6.0 mg/kg/injection, schedule: Q01DX009 (ip), vehicle: saline 240 % of control | dose: 9.0 mg/kg/injection, schedule: Q01DX009 (ip), vehicle: saline 245 % of control
inactive: dose: 3.13 mg/kg/injection, schedule: Q04DX003 (ip), vehicle: saline 100 % of control | [1] 95 % of control

C=CCn1nnc(-c2ccccc2)n1
inactive: [2] 117 % of control | [3] 117 % of control | dose: 200.0 mg/kg/injection, schedule: Q01DX009 (ip), vehicle: saline with Tween-80 119 % of control

CCOC(=O)N1CCN(CCCCCOc2ccccc2C2CCCCC2)CC1
inactive: [2] 111 % of control | [3] 120 % of control

CCOC(=O)c1c(C)nc(C)c(C(=O)OCC)c1-c1cccnc1
inactive: dose: 12.5 mg/kg/injection, schedule: Q01DX009 (ip), vehicle: other 101 % of control | dose: 25.0 mg/kg/injection, schedule: Q01DX009 (ip), vehicle: other 100 % of control | dose: 50.0 mg/kg/injection, schedule: Q01DX009 (ip), vehicle: other 100 % of control | dose: 100.0 mg/kg/injection, schedule: Q01DX009 (ip), vehicle: other 110 % of control | dose: 200.0 mg/kg/injection, schedule: Q01DX009 (ip), vehicle: other 112 % of control

C[C@H]1C(=O)O[C@@H]2CCN3CC=C(COC(=O)[C@](C)(O)[C@@]1(C)O)[C@H]23
inactive: dose: 3.13 mg/kg/injection, schedule: Q01DX010 (ip), vehicle: saline 100 % of control | dose: 6.2 mg/kg/injection, schedule: Q01DX009 (ip), vehicle: saline 111 % of control | dose: 6.25 mg/kg/injection, schedule: Q01DX010 (ip), vehicle: saline 100 % of control | [4] 122 % of control | dose: 12.5 mg/kg/injection, schedule: Q01DX009 (ip), vehicle: water 109 % of control | dose: 12.5 mg/kg/injection, schedule: Q01DX010 (ip), vehicle: saline 104 % of control | dose: 25.0 mg/kg/injection, schedule: Q01DX009 (ip), vehicle: water 86 % of control | dose: 25.0 mg/kg/injection, schedule: Q01DX010 (ip), vehicle: saline 104 % of control | dose: 50.0 mg/kg/injection, schedule: Q01DX009 (ip), vehicle: water 118 % of control | dose: 75.0 mg/kg/injection, schedule: Q01DX009 (ip), vehicle: water 104 % of control

CC[N+](C)(CC)CCC[n+]1c(-c2ccccc2)c2cc(N)ccc2c2ccc(N)cc21
inactive: dose: 1.5 mg/kg/injection, schedule: Q01DX009 (ip), vehicle: saline 107 % of control | dose: 3.0 mg/kg/injection, schedule: Q01DX009 (ip), vehicle: saline 100 % of control | dose: 3.12 mg/kg/injection, schedule: Q04DX003 (ip), vehicle: saline 100 % of control | [1] 100 % of control

[CH3][Sn]([CH3])([CH3])[S]C(=S)N1CCOCC1
inactive: dose: 0.75 mg/kg/injection, schedule: Q01DX009 (ip), vehicle: Klucel (hydroxypropylcellulose) (HPC) 97 % of control

COc1ccc2nc(C)c(COC(C)=O)c(Cl)c2c1
inactive: dose: 50.0 mg/kg/injection, schedule: Q01DX009 (ip), vehicle: saline 104 % of control | dose: 100.0 mg/kg/injection, schedule: Q04DX003 (ip), vehicle: saline 104 % of control | dose: 200.0 mg/kg/injection, schedule: Q01DX009 (ip), vehicle: saline 104 % of control | dose: 200.0 mg/kg/injection, schedule: Q04DX003 (ip), vehicle: saline 105 % of control | dose: 400.0 mg/kg/injection, schedule: Q01DX009 (ip), vehicle: saline 101 % of control | dose: 400.0 mg/kg/injection, schedule: Q04DX003 (ip), vehicle: saline 90 % of control

CNC(CNC(CO)CC(C)C)Cc1ccc(OCc2ccccc2)cc1 (centres undefined)
inactive: [4] 104 % of control | dose: 25.0 mg/kg/injection, schedule: Q01DX009 (ip), vehicle: saline 100 % of control

OCC(O)C(O)C(O)C(O)C(O)CO (centres undefined)
inactive: dose: 100.0 mg/kg/injection, schedule: Q01DX010 (ip), vehicle: carboxymethylcellulose (CMC) 100 % of control | dose: 100.0 mg/kg/injection, schedule: Q01DX010 (ip), vehicle: saline 95 % of control | dose: 400.0 mg/kg/injection, schedule: Q01DX010 (ip), vehicle: carboxymethylcellulose (CMC) 100 % of control | dose: 400.0 mg/kg/injection, schedule: Q01DX010 (ip), vehicle: saline 100 % of control
